The source of these data is patent publication US20240391948A1, “NOVEL COMPOUND THAT INHIBITS TNF-ALPHA GENERATION AND INFLAMMASOME ACTIVITY AND PREPARATION METHOD THEREFOR” (SHAPERON INC., priority 2021, published 2024).

Some results are limits rather than exact numbers.

What all share (assay type): cell-based
Assay [1] has as its system J774A.1 (Mouse BALB/c monocyte macrophage cell line) cells. As to the kind of experiment: LPS-induced TNF-α secretion inhibition in J774A.1 cells. The conditions noted are these: J774.A1, 1 μM compound, graded compared to taurodeoxycholic acid (positive control), read-out: TNF-α production inhibition grade. In outline: (§1)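 Grades (A >100%, B 50–100%, C 20–50%, D <20%) express cytokine suppression by 1 μM compound relative to taurodeoxycholic acid. LPS-induced TNF-α and LPS+ATP-induced IL-1β secretion were measured in murine J774A.1 macrophage cells.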

Assay [2] has the same test system. The assay can be described thus: LPS+ATP-induced IL-1β secretion inhibition in J774A.1 cells. The conditions noted are these: J774.A1, 1 μM compound, graded compared to taurodeoxycholic acid (positive control), read-out: IL-1β production inhibition grade. In outline:
as §1

For assay [3], the system named is U937 cells (human monocytic cell line). As to the kind of experiment: Pam2CSK4-induced TNF-α secretion inhibition in PMA-differentiated U937 cells. The settings on record: U-937, U937 cells differentiated with PMA, read-out: TNF-α production inhibition grade (IC50). In outline:
(§2)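 Inhibition is given as IC50 (μM) in A-D bands, using distinct thresholds for TNF-α and for IL-1β. Secretion followed Pam2CSK4 stimulation (TNF-α) or BzATP stimulation (IL-1β) of compound-pretreated, PMA-differentiated U937 macrophages.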

The test system is the same in assay [4]. The assay can be described thus: BzATP-induced IL-1β secretion inhibition in PMA-differentiated U937 cells. The conditions noted are these: U-937, U937 cells differentiated with PMA, read-out: IL-1β production inhibition grade (IC50). In outline: as §2

As for `C[C@H](CCC(=O)N[C@H](c1ccccc1)[C@H](C)S(=O)(=O)O)[C@H]1CC[C@H]2[C@@H]3CC[C@@H]4C[C@H](O)CC[C@]4(C)[C@H]3CC[C@]12C` [NC10070], the inhibition (commonly the change of the read-out against control, counted positive when it falls) at 1 µM in assay [1] is 50 to 100%; in assay [2], over 100%. The IC50 (commonly the midpoint of a concentration-inhibition curve) was under 500 nM in assay [3] and under 50 nM in assay [4].

Turning to `CC[C@H]1[C@@H](O)[C@@H]2[C@H](CC[C@]3(C)[C@@H]([C@H](C)CCC(=O)N[C@@H](CO)CS(=O)(=O)O)CC[C@@H]23)[C@@]2(C)CC[C@@H](O)C[C@@H]12` [NC40024], the inhibition at 1 µM in assay [1] and in assay [2] was under 20% each time. Besides, the IC50 in assay [3] is 500 to 1000 nM; in assay [4] it was at least 200 nM.

For the compound `C[C@H](CCC(=O)NC1(CS(=O)(=O)O)CC1)[C@H]1CC[C@H]2[C@@H]3CC[C@@H]4C[C@H](O)CC[C@]4(C)[C@H]3C[C@H](O)[C@]12C` [NC10047], the results for the inhibition at 1 µM in assay [1] and in assay [2] were under 20% and 20 to 50%, respectively. Further, the results for the IC50 in assay [3] and in assay [4] were 500 to 1000 nM and 100 to 200 nM, respectively.

Take `CC[C@H]1[C@@H](O)[C@@H]2[C@H](C[C@H](O)[C@]3(C)[C@@H]([C@H](C)CCC(=O)N4CCC[C@@H](S(=O)(=O)O)C4)CC[C@@H]23)[C@@]2(C)CC[C@@H](O)C[C@@H]12` [NC50010]: the inhibition at 1 µM in assay [1] is under 20%; in assay [2], over 100%. Further, the 50% inhibitory concentration (IC50) was at least 2000 nM in assay [3] and 100 to 200 nM in assay [4].

Consider `C[C@H](CCC(=O)N[C@H]1CCCC[C@H]1S(=O)(=O)O)[C@H]1CC[C@H]2[C@@H]3CC[C@@H]4C[C@H](O)CC[C@]4(C)[C@H]3CC[C@]12C` [NC10083], for which the inhibition at 1 µM in assay [1] and in assay [2] was over 100% each time. Also, the IC50 is 500 to 1000 nM in assay [3] and under 50 nM in assay [4].

For `C[C@H](CCC(=O)N[C@H](Cc1ccccc1)CS(=O)(=O)O)[C@H]1CC[C@H]2[C@@H]3[C@H](O)C[C@@H]4C[C@H](O)CC[C@]4(C)[C@H]3C[C@H](O)[C@]12C` [NC20015], the results for the inhibition at 1 µM in assay [1] and in assay [2] were under 20% and over 100%, respectively. Further, the IC50 was under 500 nM in assay [3] and under 50 nM in assay [4].

Consider `C[C@H](CCC(=O)N[C@@H](C)CS(=O)(=O)O)[C@H]1CC[C@H]2[C@@H]3CC[C@@H]4C[C@H](O)CC[C@]4(C)[C@H]3C[C@H](O)[C@]12C` [NC10043], for which the values for the inhibition at 1 µM in assay [1] and in assay [2] were under 20% and over 100%, respectively. In addition, the IC50 in assay [3] was under 500 nM; in assay [4], 100 to 200 nM.

Consider `C[C@H](CCC(=O)N1CC(S(=O)(=O)O)C1)[C@H]1CC[C@H]2[C@@H]3CC[C@@H]4C[C@H](O)CC[C@]4(C)[C@H]3CC[C@]12C` [NC10063], for which the values for the inhibition at 1 µM in assay [1] and in assay [2] were under 20% and over 100%, respectively. Further, the IC50 was 500 to 1000 nM in assay [3] and under 50 nM in assay [4].

On to `CC[C@H]1[C@@H](O)[C@@H]2[C@H](CC[C@]3(C)[C@@H]([C@H](C)CCC(=O)N4CCC(S(=O)(=O)O)CC4)CC[C@@H]23)[C@@]2(C)CC[C@@H](O)C[C@@H]12` [NC40011], for which the inhibition at 1 µM in assay [1] was under 20%; in assay [2], 20 to 50%. Further, the figures for the IC50 in assay [3] and in assay [4] were 500 to 1000 nM and at least 200 nM, respectively.

Take `C[C@H](CCC(=O)N1CCC[C@H]1CS(=O)(=O)O)[C@H]1CC[C@H]2[C@@H]3CC[C@@H]4C[C@H](O)CC[C@]4(C)[C@H]3C[C@H](O)[C@]12C` [NC10037]: the inhibition at 1 µM is under 20% in assay [1] and 50 to 100% in assay [2]. The IC50 in assay [3] is under 500 nM; in assay [4], at least 200 nM.

Turning to `C[C@H](CCC(=O)NC(C)(C)CS(=O)(=O)O)[C@H]1CC[C@H]2[C@@H]3CC[C@@H]4CC(=O)CC[C@]4(C)[C@H]3CC[C@]12C` [NC30013], the inhibition at 1 µM in assay [1] and in assay [2] was 50 to 100% each time. In addition, the IC50 was 500 to 1000 nM in assay [3] and at least 200 nM in assay [4].

With `C[C@H](CCC(=O)N1CC[C@H](S(=O)(=O)O)C1)[C@H]1CC[C@H]2[C@@H]3CC[C@@H]4C[C@H](O)CC[C@]4(C)[C@H]3CC[C@]12C` [NC10089], the inhibition at 1 µM was under 20% in assay [1] and 20 to 50% in assay [2]. The results for the IC50 in assay [3] and in assay [4] were under 500 nM and at least 200 nM, respectively.

As to `C[C@H](CCC(=O)N[C@@H](CO)CS(=O)(=O)O)[C@H]1CC[C@H]2[C@@H]3[C@H](O)C[C@@H]4C[C@H](O)CC[C@]4(C)[C@H]3C[C@H](O)[C@]12C` [NC20024], the inhibition at 1 µM in assay [1] is under 20%; in assay [2], 20 to 50%. For the same compound, the IC50 in assay [3] was under 500 nM; in assay [4], at least 200 nM.

With `C[C@H](CCC(=O)N1CCC[C@H]1CS(=O)(=O)O)[C@H]1CC[C@H]2[C@@H]3[C@H](O)C[C@@H]4C[C@H](O)CC[C@]4(C)[C@H]3C[C@H](O)[C@]12C` [NC20021], the inhibition at 1 µM in assay [1] and in assay [2] was under 20% throughout. Further, the half-maximal inhibitory concentration (IC50) in assay [3] was in the range of 1000 to 2000 nM; in assay [4], 50 to 100 nM.

Regarding `CC[C@H]1[C@@H](O)[C@@H]2[C@H](C[C@H](O)[C@]3(C)[C@@H]([C@H](C)CCC(=O)NC4(CS(=O)(=O)O)CC4)CC[C@@H]23)[C@@]2(C)CC[C@@H](O)C[C@@H]12` [NC50032], the figures for the inhibition at 1 µM in assay [1] and in assay [2] were under 20% and 50 to 100%, respectively. Moreover, the figures for the IC50 in assay [3] and in assay [4] were at least 2000 nM and 50 to 100 nM, respectively.

With `CC[C@H]1[C@@H](O)[C@@H]2[C@H](CC[C@]3(C)[C@@H]([C@H](C)CCC(=O)N[C@H](CS(=O)(=O)O)c4ccccc4)CC[C@@H]23)[C@@]2(C)CC[C@@H](O)C[C@@H]12` [NC40018], the inhibition at 1 µM was under 20% in assay [1] and over 100% in assay [2]. Besides, the IC50 is under 500 nM in assay [3] and under 50 nM in assay [4].

For `C[C@H](CCC(=O)NCCCO)[C@H]1CC[C@H]2[C@@H]3CC[C@@H]4C[C@H](O)CC[C@]4(C)[C@H]3CC[C@]12C` [NC10054], the inhibition at 1 µM in assay [1] is under 20%; in assay [2], 50 to 100%. In addition, the IC50 lay within 1000 to 2000 nM in assay [3] and 50 to 100 nM in assay [4].

For `CC(C)[C@@H](CS(=O)(=O)O)NC(=O)CC[C@@H](C)[C@H]1CC[C@H]2[C@@H]3[C@H](O)C[C@@H]4C[C@H](O)CC[C@]4(C)[C@H]3C[C@H](O)[C@]12C` [NC20016], the inhibition at 1 µM in assay [1] was under 20%; in assay [2], over 100%. Further, the IC50 was 1000 to 2000 nM in assay [3] and under 50 nM in assay [4].

Take `CC(C)C[C@@H](CS(=O)(=O)O)NC(=O)CC[C@@H](C)[C@H]1CC[C@H]2[C@@H]3CC[C@@H]4C[C@H](O)CC[C@]4(C)[C@H]3CC[C@]12C` [NC10086]: the inhibition at 1 µM in assay [1] and in assay [2] was under 20% in each case. The results for the IC50 in assay [3] and in assay [4] were under 500 nM and at least 200 nM, respectively.
